The values below come from patent US7998978B2 (Pfizer Inc., priority 2006, dated 2011).

Structures are written as SMILES.

The term inhibition denotes how much of the control response was suppressed. By Ki is commonly meant a measure of affinity in units of concentration, obtained from inhibition or displacement. Higher therefore signals weaker binding.

One experiment deals with T1, JNK1α1 (Homo sapiens, UniProt P45983).
T1 construct: catalytic domain containing amino acids 1-364 and N-terminal hexahistidine tag; hexahistidine (His6) (N); made in house; host or cells: E. coli BL21 (DE3)
T1 sequence (P45983 1-364): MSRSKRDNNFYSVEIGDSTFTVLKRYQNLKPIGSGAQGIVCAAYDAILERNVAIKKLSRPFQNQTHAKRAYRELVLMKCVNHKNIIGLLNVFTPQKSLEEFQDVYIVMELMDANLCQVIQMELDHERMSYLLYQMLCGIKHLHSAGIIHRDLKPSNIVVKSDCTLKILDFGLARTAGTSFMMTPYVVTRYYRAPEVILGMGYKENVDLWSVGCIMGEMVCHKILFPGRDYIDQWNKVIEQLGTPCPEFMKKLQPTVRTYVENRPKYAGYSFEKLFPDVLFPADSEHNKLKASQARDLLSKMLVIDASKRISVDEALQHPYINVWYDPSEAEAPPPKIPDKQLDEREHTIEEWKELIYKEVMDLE
Briefly: Coupled spectrophotometric (PK/LDH) JNK1α1 assay: % inhibition and Ki determination. Format: biochemical. The settings on record: @1 uM; read-out: % Inhibition JNK-1. Summed up:
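Initial rates were taken from the absorbance decrease at 340 nm at 30° C. Ki was fitted with a tight-binding model over 11 concentrations (top 100 μM); single-point inhibition was tested at 1 or 10 μM.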
With `Cn1nc(-c2ccncc2)cc1NC(=O)c1cccc2cnc(N[C@H]3CC[C@H](O)CC3)nc12` [Example 317, 2-[(trans-4-hydroxycyclohexyl)amino]-N-(1-methyl-3-pyridin-4-yl-1H-pyrazol-5-yl)quinazoline-8-carboxamide], the inhibition at 1 µM turned out to be 31%.

`O[C@H]1CC[C@H](Nc2ncc3ccc(OC(CN4CCOCC4)c4ccccc4)cc3n2)CC1` (stereo partly drawn) [Example 298, trans-4-{[7-(2-morpholin-4-yl-1-phenylethoxy)quinazolin-2-yl]amino}cyclohexanol]: the inhibition at 1 µM was determined as 18%.

Regarding `Cc1nnc(CCNC(=O)c2cccc3cnc(N[C@H]4CC[C@H](O)CC4)nc23)[nH]1` [Example 478, 2-[(trans-4-hydroxycyclohexyl)amino]-N-[2-(5-methyl-4H-1,2,4-triazol-3-yl)ethyl]quinazoline-8-carboxamide], the inhibition at 1 µM was found to be 12%.

On to `COc1ccc(COc2cccc3cnc(N[C@H]4CC[C@H](O)CC4)nc23)cc1OC` [Example 265, trans-4-({8-[(3,4-dimethoxybenzyl)oxy]quinazolin-2-yl}amino)cyclohexanol], for which the inhibition at 1 µM amounted to 47%.

For the compound `Cc1cccn(CCNC(=O)c2cccc3cnc(N[C@H]4CC[C@H](O)CC4)nc23)c1=O` [Example 531, 2-[(trans-4-hydroxycyclohexyl)amino]-N-[2-(3-methyl-2-oxopyridin-1(2H)-yl)ethyl]quinazoline-8-carboxamide], the inhibition at 1 µM came to 26%.

`CCN1CCC(Oc2ccc3cnc(N[C@H]4CC[C@H](O)CC4)nc3c2)C1` (stereo partly drawn) [Example 278, trans-4-({7-[(1-ethylpyrrolidin-3-yl)oxy]quinazolin-2-yl}amino)cyclohexanol]: the inhibition at 1 µM stood at 27%.

For the compound `O=C(NCCN1CCNC1=O)c1cccc2cnc(N[C@H]3CC[C@H](O)CC3)nc12` [Example 476, 2-[(trans-4-hydroxycyclohexyl)amino]-N-[2-(2-oxoimidazolidin-1-yl)ethyl]quinazoline-8-carboxamide], the inhibition at 1 µM was 10%.

Consider `CCOCC(C)Oc1ccc2cnc(N[C@H]3CC[C@H](O)CC3)nc2c1` (stereo partly drawn) [Example 275, trans-4-{[7-(2-ethoxy-1-methylethoxy)quinazolin-2-yl]amino}cyclohexanol], for which the inhibition at 1 µM was determined as 52%.

In the case of `O=C(NC[C@@H](O)c1ccccc1)c1cccc2cnc(N[C@H]3CC[C@H](O)CC3)nc12` [Example 474, 2-[(trans-4-hydroxycyclohexyl)amino]-N-[(2S)-2-hydroxy-2-phenylethyl]quinazoline-8-carboxamide], the inhibition at 1 µM was 37%.

The same experiment, now with this note: @10 uM; read-out: % Inhibition JNK-1.
Take `N#Cc1cccc(CNc2cc3cc(-c4cn[nH]c4)ccc3cn2)c1` [Example 238, 3-({[6-(1H-pyrazol-4-yl)isoquinolin-3-yl]amino}methyl)benzonitrile]: the inhibition at 10 µM amounted to 46%.

For the compound `Cc1cc(C)n(CC(C)NC(=O)c2cccc3cnc(N[C@H]4CC[C@H](O)CC4)nc23)n1` (stereo partly drawn) [Example 483, N-[2-(3,5-dimethyl-1H-pyrazol-1-yl)-1-methylethyl]-2-[(trans-4-hydroxycyclohexyl)amino]quinazoline-8-carboxamide], the inhibition at 10 µM worked out at 71%.

Still in this experiment, the particulars now being: JNK-1.
`O=C(COCc1ccccc1)Nc1cc2cc(-c3cn[nH]c3)ccc2cn1` [Example 49, 2-(benzyloxy)-N-[6-(1H-pyrazol-4-yl)isoquinolin-3-yl]acetamide] returned a Ki of 3 nM.

With `Cc1cc(C(=O)NCC(=O)Nc2cc3cc(-c4cn[nH]c4)ccc3cn2)no1` [Example 19, 5-methyl-N-(2-oxo-2-{[6-(1H-pyrazol-4-yl)isoquinolin-3-yl]amino}ethyl)isoxazole-3-carboxamide], the Ki is 13 nM.

As to `O=C(NCc1ccccn1)c1ccc2cnc(N[C@H]3CC[C@H](O)CC3)nc2c1` [Example 86, 2-[(trans-4-hydroxycyclohexyl)amino]-N-(pyridin-2-ylmethyl)quinazoline-7-carboxamide], the Ki came out at 220 nM.

In the case of `O=C(CCc1ccc(F)cc1)Nc1cc2cc(-c3cn[nH]c3)ccc2cn1` [Example 44, 3-(4-fluorophenyl)-N-[6-(1H-pyrazol-4-yl)isoquinolin-3-yl]propanamide], the affinity, expressed as Ki, was 11 nM.

The compound `O=C(NCC1(O)CCCCC1)c1ccc2cnc(N[C@H]3CC[C@H](O)CC3)nc2c1` [Example 327, 2-[(trans-4-hydroxycyclohexyl)amino]-N-[(1-hydroxycyclohexyl)methyl]quinazoline-7-carboxamide] displayed a Ki of 254 nM.

With `O=C(N[C@H]1CC[C@@H](CO)CC1)c1ccc2cnc(N[C@H]3CC[C@H](O)CC3)nc2c1` [Example 336, 2-[(trans-4-hydroxycyclohexyl)amino]-N-[cis-4-(hydroxymethyl)cyclohexyl]quinazoline-7-carboxamide], the affinity corresponds to a Ki of 516 nM.

For `Cn1ncc(NC(=O)c2ccc3cnc(N[C@H]4CC[C@H](O)CC4)nc3c2)n1` [Example 358, 2-[(trans-4-hydroxycyclohexyl)amino]-N-(2-methyl-2H-1,2,3-triazol-4-yl)quinazoline-7-carboxamide], the inhibition constant (Ki) was 1700 nM.

Compound `CC[C@@H](CO)NC(=O)c1ccc2cnc(NC3CCC3)nc2c1` [Example 416, 2-(cyclobutylamino)-N-[(1S)-1-(hydroxymethyl)propyl]quinazoline-7-carboxamide] showed a Ki of 1550 nM.

In turn, `CCS(=O)(=O)N[C@H]1CC[C@H](Nc2ncc3cccc(OC4CCOC4)c3n2)CC1` (stereo partly drawn) [Example 188, N-(trans-4-{[8-(tetrahydrofuran-3-yloxy)quinazolin-2-yl]amino}cyclohexyl)ethanesulfonamide] registered a Ki of 374 nM.

As for `c1cc2cnc(NC3CCOCC3)nc2cc1O[C@H]1CCOC1` [Example 163, 7-[(3S)-tetrahydrofuran-3-yloxy]-N-(tetrahydro-2H-pyran-4-yl)quinazolin-2-amine], the Ki stood at 1740 nM.

`O=C(N[C@H](CO)c1ccccc1)c1ccc2cnc(NC3CCCC3)nc2c1` [Example 384, 2-(cyclopentylamino)-N-[(1S)-2-hydroxy-1-phenylethyl]quinazoline-7-carboxamide] registered a Ki of 257 nM.

As to `CC(=O)OCC(C)(C)CC(=O)Nc1cc2cc(-c3cn[nH]c3)ccc2cn1` [Example 10, 2,2-dimethyl-4-oxo-4-{[6-(1H-pyrazol-4-yl)isoquinolin-3-yl]amino)butyl acetate], affinity was put at a Ki of 42 nM.

With `O[C@H]1CC[C@H](Nc2ncc3cccc(OC4CCN(c5ccncn5)CC4)c3n2)CC1` [Example 247, trans-4-({8-[(1-pyrimidin-4-ylpiperidin-4-yl)oxy]quinazolin-2-yl}amino)cyclohexanol], the Ki turned out to be 274 nM.

The compound `C[C@H](CO)NC(=O)c1ccc2cnc(N[C@H]3CC[C@H](O)CC3)nc2c1` [Example 363] displayed a Ki of 1950 nM.

Take `O=C(N[C@H](CO)Cc1ccccc1)c1ccc2cnc(NC3CCCC3)nc2c1` [Example 408, N-[(1S)-1-benzyl-2-hydroxyethyl]-2-(cyclopentylamino)quinazoline-7-carboxamide]: the affinity, expressed as Ki, was 743 nM.

As for `CC(C)Nc1ncc2cccc(OC3CCOC3)c2n1` (stereo not shown) [Example 172, N-isopropyl-8-(tetrahydrofuran-3-yloxy)quinazolin-2-amine], the Ki was determined as 3570 nM.

In turn, `O=C(N[C@H](CO)Cc1c[nH]cn1)c1ccc2cnc(N[C@H]3CC[C@H](O)CC3)nc2c1` [Example 417, 2-[(trans-4-hydroxycyclohexyl)amino]-N-[(1S)-2-hydroxy-1-(1H-imidazol-4-ylmethyl)ethyl]quinazoline-7-carboxamide] came in with a Ki of 1680 nM.

Regarding `O[C@H]1CC[C@H](Nc2ncc3cccc(OCC4CCOC4)c3n2)CC1` (stereo partly drawn) [Example 249, trans-4-{[8-(tetrahydrofuran-3-ylmethoxy)quinazolin-2-yl]amino}cyclohexanol], the Ki turned out to be 323 nM.

In turn, `Cn1c(=O)c2c(ncn2CC(=O)Nc2cc3cc(-c4cn[nH]c4)ccc3cn2)n(C)c1=O` [Example 52, 2-(1,3-dimethyl-2,6-dioxo-1,2,3,6-tetrahydro-7H-purin-7-yl)-N-[6-(1H-pyrazol-4-yl)isoquinolin-3-yl]acetamide] yielded a Ki of 15 nM.

`O=C(N[C@H](CO)CC1CCCCC1)c1ccc2cnc(NC3CCCC3)nc2c1` [Example 419, N-[(1S)-2-cyclohexyl-1-(hydroxymethyl)ethyl]-2-(cyclopentylamino)quinazoline-7-carboxamide] gave a Ki of 3030 nM.

For `O=C(CNC(=O)C1(c2ccccc2)CC1)Nc1cc2cc(-c3cn[nH]c3)ccc2cn1` [Example 35, N-(2-oxo-2-{[6-(1H-pyrazol-4-yl)isoquinolin-3-yl]amino)ethyl)-1-phenylcyclopropanecarboxamide], the Ki is 8 nM.

The compound `Cc1ccc2cnc(N[C@H]3CC[C@H](O)CC3)nc2c1OCC(=O)N1CCOCC1` [Example 213, trans-4-{[7-methyl-8-(2-morpholin-4-yl-2-oxoethoxy)quinazolin-2-yl]amino} cyclohexanol] registered a Ki of 780 nM.

For `FC1(F)CCC(Nc2ncc3cccc(OC4CCOCC4)c3n2)CC1` [Example 176, N-(4,4-difluorocyclohexyl)-8-(tetrahydro-2H-pyran-4-yloxy)quinazolin-2-amine], the Ki came out at 422 nM.

Compound `O[C@H]1CC[C@H](Nc2ncc3cccc(OCc4ccccn4)c3n2)CC1` [Example 248, trans-4-{[8-(pyridin-2-ylmethoxy)quinazolin-2-yl]amino}cyclohexanol] came in with a Ki of 303 nM.

As to `O=C(N[C@@H]1CCC[C@H]1O)c1cccc2cnc(N[C@H]3CC[C@H](O)CC3)nc12` (relative stereo) [Example 136, 2-[(trans-4-hydroxycyclohexyl)amino]-N-[(trans)-2-hydroxycyclopentyl]quinazoline-8-carboxamide], the affinity corresponds to a Ki of 257 nM.

As to `CCC1(COc2cccc3cnc(N[C@H]4CC[C@H](O)CC4)nc23)COC1` [Example 246, trans-4-({8-[(3-ethyloxetan-3-yl)methoxy]quinazolin-2-yl}amino)cyclohexanol], the Ki stood at 257 nM.
